Measurements taken from patent publication US20210322443A1 (MAPREG, priority 2015, published 2021).

Experiments:
Androgen Receptor (AR) = Androgen Receptor (AR) (Rattus norvegicus, UniProt P15207); assay: Radioligand binding assay, steroid hormone receptors; conditions: 1.5 nM [3H] Mibolerone, Rat recombinant E. coli, read-out: % inhibition of specific binding
Description: Binding affinity of 3β-methoxy-PREG (MAP4343) for receptors of steroid hormones was evaluated using radioligand binding assays.

NMDA PCP site = assay: CNS receptor binding assay; conditions: 10 μM; [3H] TCP; rat cerebral cortex
[1] = target: purified tubulin and MAP2 (Homo sapiens, UniProt P11137); assay: Increase in optical density at 345 nm of purified tubulin and MAP2 (microtubule polymerization); type: biochemical; conditions: 37° C., GTP
Description: Activity is measured by the increase in optical density at 345 nm of a mixture of purified tubulin and MAP2, incubated at 37° C. in the presence of GTP.

Dopaminergic D1 = Dopaminergic D1 (Homo sapiens, UniProt P21728); assay: CNS receptor binding assay; conditions: read-out: % Inhibition of control specific binding
Serotoninergic 5-HT2B = Serotoninergic 5-HT2B (Homo sapiens, UniProt P41595); assay: CNS receptor binding assay; conditions: read-out: % Inhibition of control specific binding
Serotoninergic 5-HT2A = Serotoninergic 5-HT2A (Homo sapiens, UniProt P28223); assay: CNS receptor binding assay; conditions: [3H] ketanserin, Human recombinant (HEK-293 cells), read-out: % Inhibition of control specific binding
Serotoninergic 5-HT6 = Serotoninergic 5-HT6 (Homo sapiens, UniProt P50406); assay: CNS receptor binding assay; conditions: read-out: % Inhibition of control specific binding
Noradrenergic α1 = assay: CNS receptor binding assay; conditions: 10 μM; [3H] prazosin; rat cerebral cortex
[2] = target: Serotoninergic Transporter (Homo sapiens, UniProt P31645); assay: CNS receptor binding assay; conditions: [3H] imipramine, Human recombinant (CHO cells), read-out: % Inhibition of control specific binding
[3] = test system: 80 different CNS neurotransmitters receptors; assay: Screen for in vitro affinity to 80 CNS receptors; type: binding; conditions: significant = inhibition higher than 50%
MAP2 = MAP2 (Homo sapiens, UniProt P11137); assay: Binding by displacement of PREG-3H
Serotoninergic 5-HT5A = Serotoninergic 5-HT5A (Homo sapiens, UniProt P47898); assay: CNS receptor binding assay; conditions: read-out: % Inhibition of control specific binding
Serotoninergic 5-HT5A, sequence (P47898 whole entry): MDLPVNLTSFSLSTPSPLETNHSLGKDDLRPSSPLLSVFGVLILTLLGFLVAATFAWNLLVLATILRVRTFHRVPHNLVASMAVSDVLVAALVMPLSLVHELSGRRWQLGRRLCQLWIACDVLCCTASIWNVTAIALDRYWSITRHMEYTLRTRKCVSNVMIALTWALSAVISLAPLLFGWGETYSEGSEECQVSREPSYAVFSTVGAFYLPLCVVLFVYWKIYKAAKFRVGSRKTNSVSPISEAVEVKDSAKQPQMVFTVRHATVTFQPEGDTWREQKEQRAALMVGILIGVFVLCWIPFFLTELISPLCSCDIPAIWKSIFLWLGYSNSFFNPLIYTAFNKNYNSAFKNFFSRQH

MAP2, sequence (P11137 whole entry): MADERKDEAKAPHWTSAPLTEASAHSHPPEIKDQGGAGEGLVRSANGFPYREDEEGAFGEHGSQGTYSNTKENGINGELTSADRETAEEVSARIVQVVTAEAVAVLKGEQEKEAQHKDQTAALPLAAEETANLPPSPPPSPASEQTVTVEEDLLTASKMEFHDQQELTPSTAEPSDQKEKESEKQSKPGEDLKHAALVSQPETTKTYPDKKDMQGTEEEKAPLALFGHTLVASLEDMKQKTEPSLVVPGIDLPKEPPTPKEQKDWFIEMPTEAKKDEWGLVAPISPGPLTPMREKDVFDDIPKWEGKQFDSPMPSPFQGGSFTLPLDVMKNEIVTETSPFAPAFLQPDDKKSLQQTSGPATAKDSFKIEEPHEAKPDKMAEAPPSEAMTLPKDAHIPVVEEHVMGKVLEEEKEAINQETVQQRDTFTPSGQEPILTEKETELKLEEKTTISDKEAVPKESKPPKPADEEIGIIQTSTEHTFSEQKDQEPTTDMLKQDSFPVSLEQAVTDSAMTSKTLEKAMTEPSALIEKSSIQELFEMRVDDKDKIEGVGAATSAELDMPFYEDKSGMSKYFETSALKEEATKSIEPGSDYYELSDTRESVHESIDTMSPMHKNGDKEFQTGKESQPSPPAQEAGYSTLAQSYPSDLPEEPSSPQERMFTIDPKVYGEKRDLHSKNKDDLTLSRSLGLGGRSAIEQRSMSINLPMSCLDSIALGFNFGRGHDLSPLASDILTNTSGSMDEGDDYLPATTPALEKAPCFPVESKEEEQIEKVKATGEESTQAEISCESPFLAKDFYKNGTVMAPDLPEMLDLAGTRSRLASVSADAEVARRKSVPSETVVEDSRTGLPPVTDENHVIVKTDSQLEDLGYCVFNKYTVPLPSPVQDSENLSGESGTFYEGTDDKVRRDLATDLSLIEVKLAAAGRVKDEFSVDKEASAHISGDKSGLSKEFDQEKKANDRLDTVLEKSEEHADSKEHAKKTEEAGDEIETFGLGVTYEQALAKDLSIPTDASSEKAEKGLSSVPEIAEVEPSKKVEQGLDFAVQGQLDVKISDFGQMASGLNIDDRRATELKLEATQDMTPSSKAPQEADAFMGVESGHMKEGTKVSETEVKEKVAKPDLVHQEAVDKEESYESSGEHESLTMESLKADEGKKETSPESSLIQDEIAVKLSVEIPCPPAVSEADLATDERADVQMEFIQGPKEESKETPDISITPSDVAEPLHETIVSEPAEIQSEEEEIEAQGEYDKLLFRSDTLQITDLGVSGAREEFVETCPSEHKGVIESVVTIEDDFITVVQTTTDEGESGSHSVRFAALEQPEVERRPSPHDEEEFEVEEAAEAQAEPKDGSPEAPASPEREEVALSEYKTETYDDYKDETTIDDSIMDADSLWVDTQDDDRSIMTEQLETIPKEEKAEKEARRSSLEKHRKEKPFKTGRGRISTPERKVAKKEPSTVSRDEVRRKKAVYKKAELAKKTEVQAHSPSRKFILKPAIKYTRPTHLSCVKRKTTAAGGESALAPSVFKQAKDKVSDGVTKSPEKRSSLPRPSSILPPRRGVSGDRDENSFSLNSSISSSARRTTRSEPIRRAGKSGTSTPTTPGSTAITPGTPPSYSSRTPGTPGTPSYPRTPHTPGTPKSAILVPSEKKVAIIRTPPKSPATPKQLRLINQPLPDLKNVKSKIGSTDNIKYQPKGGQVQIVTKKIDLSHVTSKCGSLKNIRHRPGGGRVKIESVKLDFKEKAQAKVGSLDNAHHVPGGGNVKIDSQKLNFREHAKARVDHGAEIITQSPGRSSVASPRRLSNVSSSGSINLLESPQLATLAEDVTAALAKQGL
purified tubulin and MAP2, sequence (P11137 whole entry): as above
Androgen Receptor (AR), sequence (P15207 whole entry S389L): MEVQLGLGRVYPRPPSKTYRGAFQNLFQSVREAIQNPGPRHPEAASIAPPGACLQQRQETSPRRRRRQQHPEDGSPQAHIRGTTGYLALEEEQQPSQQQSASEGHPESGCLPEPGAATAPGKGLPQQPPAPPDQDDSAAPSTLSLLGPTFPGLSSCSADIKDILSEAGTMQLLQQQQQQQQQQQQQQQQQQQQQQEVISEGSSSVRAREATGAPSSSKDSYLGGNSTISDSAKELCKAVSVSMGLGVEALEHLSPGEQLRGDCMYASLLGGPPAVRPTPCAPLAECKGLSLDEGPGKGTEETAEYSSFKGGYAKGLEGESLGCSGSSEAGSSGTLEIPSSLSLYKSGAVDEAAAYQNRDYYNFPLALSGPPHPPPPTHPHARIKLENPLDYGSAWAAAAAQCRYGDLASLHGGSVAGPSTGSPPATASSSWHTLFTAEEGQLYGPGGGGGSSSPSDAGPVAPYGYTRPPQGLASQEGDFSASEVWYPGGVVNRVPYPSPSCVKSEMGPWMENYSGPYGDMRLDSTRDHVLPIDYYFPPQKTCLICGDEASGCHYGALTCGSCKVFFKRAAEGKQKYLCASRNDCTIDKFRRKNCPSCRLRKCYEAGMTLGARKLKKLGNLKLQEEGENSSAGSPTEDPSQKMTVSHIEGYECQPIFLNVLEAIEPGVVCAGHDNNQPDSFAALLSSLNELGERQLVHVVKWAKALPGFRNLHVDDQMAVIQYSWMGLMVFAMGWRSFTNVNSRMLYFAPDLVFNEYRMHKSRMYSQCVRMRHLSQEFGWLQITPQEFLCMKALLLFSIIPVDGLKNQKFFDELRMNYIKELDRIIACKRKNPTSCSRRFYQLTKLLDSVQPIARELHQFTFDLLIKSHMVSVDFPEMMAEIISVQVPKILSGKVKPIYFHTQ
Dopaminergic D1, sequence (P21728 whole entry): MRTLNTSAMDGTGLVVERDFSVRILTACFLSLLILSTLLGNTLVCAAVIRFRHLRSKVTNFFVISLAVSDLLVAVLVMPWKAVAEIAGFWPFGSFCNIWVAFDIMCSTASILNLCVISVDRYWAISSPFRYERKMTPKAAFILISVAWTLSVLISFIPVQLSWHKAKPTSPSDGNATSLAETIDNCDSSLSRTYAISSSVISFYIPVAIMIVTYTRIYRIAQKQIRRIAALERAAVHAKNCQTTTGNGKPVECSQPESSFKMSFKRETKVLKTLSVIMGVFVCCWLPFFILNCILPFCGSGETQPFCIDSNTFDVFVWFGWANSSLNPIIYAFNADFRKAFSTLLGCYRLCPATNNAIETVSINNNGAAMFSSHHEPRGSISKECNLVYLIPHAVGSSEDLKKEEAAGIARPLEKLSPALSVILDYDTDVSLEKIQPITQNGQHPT
Serotoninergic Transporter, sequence (P31645 whole entry): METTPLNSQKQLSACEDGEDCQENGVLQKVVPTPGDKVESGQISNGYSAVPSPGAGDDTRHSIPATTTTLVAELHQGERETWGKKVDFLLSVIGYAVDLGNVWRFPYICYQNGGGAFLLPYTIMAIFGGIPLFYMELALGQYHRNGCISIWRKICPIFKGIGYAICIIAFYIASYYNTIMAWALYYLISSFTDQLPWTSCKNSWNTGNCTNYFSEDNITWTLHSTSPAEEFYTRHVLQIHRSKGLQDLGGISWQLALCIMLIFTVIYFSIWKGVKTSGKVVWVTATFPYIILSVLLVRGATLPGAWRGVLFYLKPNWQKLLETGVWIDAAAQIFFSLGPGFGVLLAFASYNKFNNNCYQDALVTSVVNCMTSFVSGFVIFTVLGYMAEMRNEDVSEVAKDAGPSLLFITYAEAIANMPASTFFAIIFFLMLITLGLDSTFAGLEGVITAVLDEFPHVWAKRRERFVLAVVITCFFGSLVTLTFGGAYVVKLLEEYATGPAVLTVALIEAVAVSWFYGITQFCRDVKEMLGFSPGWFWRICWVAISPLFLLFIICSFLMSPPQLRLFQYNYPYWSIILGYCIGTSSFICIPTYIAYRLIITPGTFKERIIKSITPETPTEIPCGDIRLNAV
Serotoninergic 5-HT6, sequence (P50406 whole entry): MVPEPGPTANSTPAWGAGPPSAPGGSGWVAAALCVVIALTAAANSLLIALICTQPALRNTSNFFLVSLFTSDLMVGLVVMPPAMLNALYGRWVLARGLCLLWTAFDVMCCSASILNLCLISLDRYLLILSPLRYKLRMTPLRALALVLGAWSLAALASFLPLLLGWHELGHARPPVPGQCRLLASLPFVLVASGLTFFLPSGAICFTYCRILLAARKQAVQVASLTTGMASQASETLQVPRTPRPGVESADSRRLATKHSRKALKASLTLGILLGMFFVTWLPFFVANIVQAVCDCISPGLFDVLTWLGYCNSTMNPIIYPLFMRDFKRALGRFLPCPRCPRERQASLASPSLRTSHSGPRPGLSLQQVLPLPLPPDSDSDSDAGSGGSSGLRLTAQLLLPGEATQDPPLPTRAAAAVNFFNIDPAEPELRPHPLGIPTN

With `CO[C@H]1CC[C@@]2(C)C(=CC[C@H]3[C@@H]4CC[C@H](C(C)=O)[C@@]4(C)CC[C@@H]32)C1` [MAP4343, 3β-methoxy-pregna-5-ene-20-one] the inhibition at 10 µM (Androgen Receptor (AR)) was < 25%, the “% Inhibition of control specific binding” value (NMDA PCP site) was −10% and the “Activity (percent of PREG)” value [1] was 100% of PREG. The inhibition at 10 µM (Dopaminergic D1) was 2%, the inhibition at 10 µM (Serotoninergic 5-HT2B) was -4% and the inhibition at 10 µM (Serotoninergic 5-HT2A) was 1%. The inhibition at 10 µM (Serotoninergic 5-HT6) was 12%, the “% Inhibition of control specific binding” value (Noradrenergic α1) was 4% and the inhibition at 10 µM [2] was 3%. The “in vitro affinity for any tested receptor” value [3] was “no significant affinity for any tested receptor”, the “Affinity (index of binding, percent of PREG)” value (MAP2) was 100% of PREG and the inhibition at 10 µM (Serotoninergic 5-HT5A) was -5%.
